This series has as its system CCRIS mutagenicity, Ames/micronucleus/aberration tests. The series is described as follows: CCRIS mutagenicity studies.
[1] abbreviates: Test System: AMES SALMONELLA TYPHIMURIUM, Strain/Indicator: TA98, Metabolic Activation: NONE, Method: PREINCUBATION
Where [2] appears, read: Test System: AMES SALMONELLA TYPHIMURIUM, Strain/Indicator: TA100, Metabolic Activation: NONE, Method: PREINCUBATION
The mark [3] stands for this setting: Test System: AMES SALMONELLA TYPHIMURIUM, Strain/Indicator: TA100, Metabolic Activation: NONE, Method: STANDARD PLATE.
Setting [4] is: Test System: AMES SALMONELLA TYPHIMURIUM, Strain/Indicator: TA100, Metabolic Activation: RAT, LIVER, S-9, AROCLOR 1254, Method: STANDARD PLATE.

Activity calls are given as the source filed them. No rule for the calls is given here.

Regarding `Nc1nc(-c2ccc([N+](=O)[O-])cc2)nc2c1ncn2[C@H]1C[C@H](O)[C@@H](CO)O1`, the mutagenic call is “active; positive” (Test System: AMES SALMONELLA TYPHIMURIUM, Strain/Indicator: TA98(1,8-DNP), Metabolic Activation: NONE, Method: PREINCUBATION); “active; positive” (Test System: AMES SALMONELLA TYPHIMURIUM, Strain/Indicator: TA98(1,8-DNP), Metabolic Activation: RAT, LIVER, S-9, PCB, Method: PREINCUBATION); “active; positive” (Test System: AMES SALMONELLA TYPHIMURIUM, Strain/Indicator: TA98(NR), Metabolic Activation: NONE, Method: PREINCUBATION); “active; positive” (Test System: AMES SALMONELLA TYPHIMURIUM, Strain/Indicator: TA98(NR), Metabolic Activation: RAT, LIVER, S-9, PCB, Method: PREINCUBATION); “active; positive” under setting [1]; “active; positive” (Test System: AMES SALMONELLA TYPHIMURIUM, Strain/Indicator: TA98, Metabolic Activation: RAT, LIVER, S-9, PCB, Method: PREINCUBATION). For the same compound, the mutagenic call (Test System: AMES SALMONELLA TYPHIMURIUM, Strain/Indicator: TA100(1,8-DNP), Metabolic Activation: NONE, Method: PREINCUBATION) is “active; positive”; the mutagenic call (Test System: AMES SALMONELLA TYPHIMURIUM, Strain/Indicator: TA100(NR), Metabolic Activation: NONE, Method: PREINCUBATION) is “active; positive”; the mutagenic call (Test System: AMES SALMONELLA TYPHIMURIUM, Strain/Indicator: TA100(NR), Metabolic Activation: RAT, LIVER, S-9, PCB, Method: PREINCUBATION) was “active; positive”; the mutagenic call under setting [2] is “active; positive”; the mutagenic call (Test System: AMES SALMONELLA TYPHIMURIUM, Strain/Indicator: TA100, Metabolic Activation: RAT, LIVER, S-9, PCB, Method: PREINCUBATION) was “active; positive”; the mutagenic call (Test System: AMES SALMONELLA TYPHIMURIUM, Strain/Indicator: YG1020, Metabolic Activation: NONE, Method: PREINCUBATION) is “active; positive”. The mutagenic call reads like this: (Test System: AMES SALMONELLA TYPHIMURIUM, Strain/Indicator: YG1020, Metabolic Activation: RAT, LIVER, S-9, PCB, Method: PREINCUBATION) “active; positive”; (Test System: AMES SALMONELLA TYPHIMURIUM, Strain/Indicator: YG1021, Metabolic Activation: NONE, Method: PREINCUBATION) “active; positive”; (Test System: AMES SALMONELLA TYPHIMURIUM, Strain/Indicator: YG1021, Metabolic Activation: RAT, LIVER, S-9, PCB, Method: PREINCUBATION) “active; positive”; (Test System: AMES SALMONELLA TYPHIMURIUM, Strain/Indicator: YG1024, Metabolic Activation: NONE, Method: PREINCUBATION) “active; positive”; (Test System: AMES SALMONELLA TYPHIMURIUM, Strain/Indicator: YG1024, Metabolic Activation: RAT, LIVER, S-9, PCB, Method: PREINCUBATION) “active; positive”; (Test System: AMES SALMONELLA TYPHIMURIUM, Strain/Indicator: YG1025, Metabolic Activation: NONE, Method: PREINCUBATION) “active; positive”. Moreover, the mutagenic call reads like this: (Test System: AMES SALMONELLA TYPHIMURIUM, Strain/Indicator: YG1025, Metabolic Activation: RAT, LIVER, S-9, PCB, Method: PREINCUBATION) “active; positive”; (Test System: AMES SALMONELLA TYPHIMURIUM, Strain/Indicator: YG1026, Metabolic Activation: NONE, Method: PREINCUBATION) “active; positive”; (Test System: AMES SALMONELLA TYPHIMURIUM, Strain/Indicator: YG1026, Metabolic Activation: RAT, LIVER, S-9, PCB, Method: PREINCUBATION) “active; positive”; (Test System: AMES SALMONELLA TYPHIMURIUM, Strain/Indicator: YG1029, Metabolic Activation: NONE, Method: PREINCUBATION) “active; positive”; (Test System: AMES SALMONELLA TYPHIMURIUM, Strain/Indicator: YG1029, Metabolic Activation: RAT, LIVER, S-9, PCB, Method: PREINCUBATION) “active; positive”.

With `N#C/C(=C/C=C/c1ccccc1[N+](=O)[O-])c1ccc(Br)cc1`, the mutagenic call (Test System: AMES SALMONELLA TYPHIMURIUM, Strain/Indicator: TA97A, Metabolic Activation: NONE, Method: STANDARD PLATE) is “active; positive” and the mutagenic call under setting [3] is “active; positive”.

Regarding `Cc1cccc2c1-c1ccccc1C2C` (centres undefined), the mutagenic call was “active; positive” (Test System: AMES SALMONELLA TYPHIMURIUM, Strain/Indicator: TA98, Metabolic Activation: RAT, LIVER, S-9, AROCLOR 1254, Method: STANDARD PLATE) and “active; positive” under setting [4].

As to `ClC/C=C\CCl`, the mutagenic call was “active; positive” (Test System: AMES SALMONELLA TYPHIMURIUM, Strain/Indicator: TA98, Metabolic Activation: HAMSTER, LIVER, S-9, AROCLOR 1254 (10%), Method: STANDARD PLATE); “active; positive” (Test System: AMES SALMONELLA TYPHIMURIUM, Strain/Indicator: TA100, Metabolic Activation: HAMSTER, LIVER, S-9, AROCLOR 1254 (10%), Method: STANDARD PLATE); “active; positive” under setting [3]; “active; positive” (Test System: AMES SALMONELLA TYPHIMURIUM, Strain/Indicator: TA100, Metabolic Activation: RAT, LIVER, S-9, AROCLOR 1254 (10%), Method: STANDARD PLATE); “active; positive. reevaluation of results: positive” (Test System: MOUSE LYMPHOMA, Strain/Indicator: L5178Y (TK+/TK-), Metabolic Activation: NONE, Method: SUSPENSION/PLATE); “active; positive. reevaluation of results: positive” (Test System: MOUSE LYMPHOMA, Strain/Indicator: L5178Y (TK+/TK-), Metabolic Activation: RAT, LIVER, S-9, AROCLOR 1254, Method: SUSPENSION/PLATE).

With `CN(C)CC(=O)O`, the mutagenic call is “inactive; negative” under setting [3] and “inactive; negative” under setting [4].

In the case of `O=[N+]([O-])c1cccc2cc3ccccc3cc12`, the mutagenic call by setting is: under setting [1], “active; positive”; (Test System: AMES SALMONELLA TYPHIMURIUM, Strain/Indicator: TA98, Metabolic Activation: RAT, LIVER, S-9, AROCLOR 1254 (10%), Method: PREINCUBATION) “active; positive”; under setting [2], “active; positive”; (Test System: AMES SALMONELLA TYPHIMURIUM, Strain/Indicator: TA100, Metabolic Activation: RAT, LIVER, S-9, AROCLOR 1254 (10%), Method: PREINCUBATION) “active; positive”.

For the origin of these results see PubChem BioAssay AID1259407 (Chemical Carcinogenesis Research Information System (CCRIS), 2018).
